Values of other authors in patent US20070042049A1, “Nanoparticulate benidipine compositions” (Elan Pharma International, Limited, priority 2005, published 2007).
Where a name gives a salt, the structure may show the parent alone. Read-outs that look alike come from different tables or passages of the source.

solubility (in acetic anhydride): slightly soluble | solubility (in dimethylformamide): freely soluble | solubility (in ethanol): soluble | solubility (in formic acid): very soluble | solubility (in methanol): soluble | solubility (in water): relatively insoluble
SMILES: COC(=O)C1=C(C)NC(C)=C(C(=O)O[C@@H]2CCCN(Cc3ccccc3)C2)C1c1cccc([N+](=O)[O-])c1 (stereo in doubt) [Benidipine hydrochloride]
